Assay results reported in patent US20260285850A1, “SUBSTITUTED OXAZOLIDINONES AND IMIDAZOLINONES AS HERBICIDES” (FMC CORPORATION, priority 2023, published 2026).

Tests used:
Type in all cases: in vivo
kochia (Bassia scoparia) [1] = assay: Test A postemergence application, visual injury rating 0-100; conditions: Postemergence, 10 days; for Kochia plant response rating (0 to 100 scale): 0 is no effect, 100 is complete control
How it was run: (§1)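 Compound in a non-phytotoxic, surfactant-containing solvent is applied either as a directed soil spray before seedlings emerge or onto emerged plants 2-10 cm tall; pots hold a loam-sand blend. Plants grow 10 days under greenhouse conditions and are rated by eye against untreated controls (0 no effect, 100 complete control).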

[2] = system: ragweed (common ragweed, Ambrosia artemisiifolia); assay: as above; conditions: Postemergence, 10 days; for Ragweed plant response rating (0 to 100 scale): 0 is no effect, 100 is complete control
How it was run: as §1

[3] = system: blackgrass (Alopecurus myosuroides); assay: as above; conditions: Postemergence, 10 days; for Blackgrass plant response rating (0 to 100 scale): 0 is no effect, 100 is complete control
How it was run: as §1

[4] = system: wheat (Triticum aestivum); assay: as above; conditions: Postemergence, 10 days, 0 is no effect, 100 is complete control
How it was run: as §1

[5] = system: ryegrass, Italian (italian ryegrass, Lolium multiflorum); assay: as above; conditions: Postemergence, 10 days; for Ryegrass, Italian plant response rating (0 to 100 scale): 0 is no effect, 100 is complete control
How it was run: as §1

corn (Zea mays) [6] = assay: as above; conditions: Postemergence, 10 days, 0 is no effect, 100 is complete control
How it was run: as §1

[7] = system: oat, wild (wild oat, Avena fatua); assay: as above; conditions: Postemergence, 10 days, 0 is no effect, 100 is complete control
How it was run: as §1

[8] = system: foxtail, giant (giant foxtail, Setaria faberi); assay: as above; conditions: 10 days; for Foxtail, Giant plant response rating (0 to 100 scale): 0 is no effect, 100 is complete control
How it was run: as §1

soybean (Glycine max) [9] = assay: as above; conditions: Postemergence, 10 days, 0 is no effect, 100 is complete control
How it was run: as §1

[10] = system: horseweed (Erigeron canadensis); assay: as above; conditions: Postemergence, 10 days; for Horseweed plant response rating (0 to 100 scale): 0 is no effect, 100 is complete control
How it was run: as §1

[11] = system: goosegrass (Eleusine indica); assay: as above; conditions: 10 days; for Goosegrass plant response rating (0 to 100 scale): 0 is no effect, 100 is complete control
How it was run: as §1

[12] = system: palmer (palmer amaranth, palmer pigweed, Amaranthus palmeri); assay: as above; conditions: Postemergence, 10 days; for Amaranth, Palmer / Pigweed, Palmer plant response rating (0 to 100 scale): 0 is no effect, 100 is complete control
How it was run: as §1

[13] = system: galium (catchweed bedstraw, Galium aparine); assay: as above; conditions: Postemergence, 10 days; for Galium plant response rating (0 to 100 scale): 0 is no effect, 100 is complete control
How it was run: as §1

kochia (Bassia scoparia) [14] = assay: Test A preemergence soil spray, visual injury rating 0-100; conditions: 10 days, 0 = no effect, 100 = complete control
How it was run: as §1

[15] = system: ragweed (common ragweed, Ambrosia artemisiifolia); assay: as above; conditions: 10 days, 0 = no effect, 100 = complete control
How it was run: as §1

[16] = system: blackgrass (Alopecurus myosuroides); assay: as above; conditions: 10 days, 0 = no effect, 100 = complete control
How it was run: as §1

[17] = system: wheat (Triticum aestivum); assay: as above; conditions: 10 days, 0 = no effect, 100 = complete control
How it was run: as §1

[18] = system: ryegrass, Italian (italian ryegrass, Lolium multiflorum); assay: as above; conditions: 10 days, 0 = no effect, 100 = complete control
How it was run: as §1

corn (Zea mays) [19] = assay: as above; conditions: 10 days, 0 = no effect, 100 = complete control
How it was run: as §1

[20] = system: oat, wild (wild oat, Avena fatua); assay: as above; conditions: 10 days, 0 = no effect, 100 = complete control
How it was run: as §1

[21] = system: foxtail, giant (giant foxtail, Setaria faberi); assay: as above; conditions: 10 days, 0 = no effect, 100 = complete control
How it was run: as §1

soybean (Glycine max) [22] = assay: as above; conditions: 10 days, 0 = no effect, 100 = complete control
How it was run: as §1

[23] = system: goosegrass (Eleusine indica); assay: as above; conditions: 10 days, 0 = no effect, 100 = complete control
How it was run: as §1

[24] = system: palmer (palmer amaranth, palmer pigweed, Amaranthus palmeri); assay: as above; conditions: 10 days, 0 = no effect, 100 = complete control
How it was run: as §1

[25] = system: sedge, umbrella (small-flower umbrella sedge, Cyperus difformis); assay: Test B flooded paddy test, visual plant response rating 0-100; conditions: 250 g ai/ha, Flood, applied to paddy water, evaluated after 13 days
How it was run: (§2)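 Visual evaluation after 13 days. Water-applied treatment, 3 cm flood depth held constant, plants at 2-leaf stage at treatment.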

[26] = system: ducksalad (Heteranthera limosa); assay: as above; conditions: 250 g ai/ha, Flood, applied to paddy water, evaluated after 13 days
How it was run: as §2

rice (Oryza sativa) = assay: as above; conditions: 250 g ai/ha, Flood, applied to paddy water, evaluated after 13 days
How it was run: as §2

[27] = system: barnyardgrass (Echinochloa crusgalli); assay: as above; conditions: 250 g ai/ha, Flood, applied to paddy water, evaluated after 13 days
How it was run: as §2

CONC(=O)C1C=CC(NC(=O)C2(C)CN(c3cc(F)cc(F)c3)C(=O)O2)C1 (centres unmarked) [Compound 25]
Kochia plant response rating (0 to 100 scale) (kochia (Bassia scoparia) [1]; 125 g ai/ha): 80 | Kochia plant response rating (0 to 100 scale) (kochia (Bassia scoparia) [1]; 500 g ai/ha): 90 | Ragweed plant response rating (0 to 100 scale) ([2]; 125 g ai/ha): 60 | Ragweed plant response rating (0 to 100 scale) ([2]; 500 g ai/ha): 80 | Blackgrass plant response rating (0 to 100 scale) ([3]; 125 g ai/ha): 80 | Blackgrass plant response rating (0 to 100 scale) ([3]; 500 g ai/ha): 90 | Wheat plant response rating (0 to 100 scale) ([4]; 125 g ai/ha): 80 | Wheat plant response rating (0 to 100 scale) ([4]; 500 g ai/ha): 80 | Ryegrass, Italian plant response rating (0 to 100 scale) ([5]; 125 g ai/ha): 60 | Ryegrass, Italian plant response rating (0 to 100 scale) ([5]; 500 g ai/ha): 60 | Corn plant response rating (0 to 100 scale) (corn (Zea mays) [6]; 125 g ai/ha): 100 | Corn plant response rating (0 to 100 scale) (corn (Zea mays) [6]; 500 g ai/ha): 100 | Oat, Wild plant response rating (0 to 100 scale) ([7]; 125 g ai/ha): 90 | Oat, Wild plant response rating (0 to 100 scale) ([7]; 500 g ai/ha): 100 | Foxtail, Giant plant response rating (0 to 100 scale) ([8]; 125 g ai/ha): 90 | Foxtail, Giant plant response rating (0 to 100 scale) ([8]; 500 g ai/ha): 90 | Soybean plant response rating (0 to 100 scale) (soybean (Glycine max) [9]; 125 g ai/ha): 70 | Soybean plant response rating (0 to 100 scale) (soybean (Glycine max) [9]; 500 g ai/ha): 80 | Horseweed plant response rating (0 to 100 scale) ([10]; 125 g ai/ha): 60 | Horseweed plant response rating (0 to 100 scale) ([10]; 500 g ai/ha): 80 | Goosegrass plant response rating (0 to 100 scale) ([11]; 125 g ai/ha): 90 | Goosegrass plant response rating (0 to 100 scale) ([11]; 500 g ai/ha): 90 | Amaranth, Palmer / Pigweed, Palmer plant response rating (0 to 100 scale) ([12]; 125 g ai/ha): 90 | Amaranth, Palmer / Pigweed, Palmer plant response rating (0 to 100 scale) ([12]; 500 g ai/ha): 90 | Galium plant response rating (0 to 100 scale) ([13]; 125 g ai/ha): 80 | Galium plant response rating (0 to 100 scale) ([13]; 500 g ai/ha): 80 | Kochia plant response rating (0 to 100 scale) (kochia (Bassia scoparia) [14]; 125 g ai/ha): 30 | Kochia plant response rating (0 to 100 scale) (kochia (Bassia scoparia) [14]; 500 g ai/ha): 90 | Ragweed plant response rating (0 to 100 scale) ([15]; 125 g ai/ha): 0 | Ragweed plant response rating (0 to 100 scale) ([15]; 500 g ai/ha): 30 | Blackgrass plant response rating (0 to 100 scale) ([16]; 125 g ai/ha): 40 | Blackgrass plant response rating (0 to 100 scale) ([16]; 500 g ai/ha): 90 | Wheat plant response rating (0 to 100 scale) ([17]; 125 g ai/ha): 60 | Wheat plant response rating (0 to 100 scale) ([17]; 500 g ai/ha): 100 | Ryegrass, Italian plant response rating (0 to 100 scale) ([18]; 125 g ai/ha): 60 | Ryegrass, Italian plant response rating (0 to 100 scale) ([18]; 500 g ai/ha): 90 | Corn plant response rating (0 to 100 scale) (corn (Zea mays) [19]; 125 g ai/ha): 50 | Corn plant response rating (0 to 100 scale) (corn (Zea mays) [19]; 500 g ai/ha): 90 | Oat, Wild plant response rating (0 to 100 scale) ([20]; 125 g ai/ha): 80 | Oat, Wild plant response rating (0 to 100 scale) ([20]; 500 g ai/ha): 90 | Foxtail, Giant plant response rating (0 to 100 scale) ([21]; 125 g ai/ha): 20 | Foxtail, Giant plant response rating (0 to 100 scale) ([21]; 500 g ai/ha): 90 | Soybean plant response rating (0 to 100 scale) (soybean (Glycine max) [22]; 125 g ai/ha): 0 | Soybean plant response rating (0 to 100 scale) (soybean (Glycine max) [22]; 500 g ai/ha): 70 | Goosegrass plant response rating (0 to 100 scale) ([23]; 125 g ai/ha): 30 | Goosegrass plant response rating (0 to 100 scale) ([23]; 500 g ai/ha): 100 | Amaranth, Palmer plant response rating (0 to 100 scale) ([24]; 125 g ai/ha): 10 | Amaranth, Palmer plant response rating (0 to 100 scale) ([24]; 500 g ai/ha): 80

CNC(=O)C1C=CC(NC(=O)C2(C)CN(c3cc(F)cc(F)c3)C(=O)O2)C1 (centres unmarked) [Compound 26]
Kochia plant response rating (kochia (Bassia scoparia) [1]; 1000 g ai/ha, 0 to 100 scale): 80 | Ragweed plant response rating ([2]; 1000 g ai/ha, 0 to 100 scale): 50 | Blackgrass plant response rating ([3]; 1000 g ai/ha, 0 to 100 scale): 90 | Ryegrass, Italian plant response rating ([5]; 1000 g ai/ha, 0 to 100 scale): 70 | Foxtail, Giant plant response rating ([8]; 1000 g ai/ha, 0 to 100 scale): 90 | Horseweed plant response rating ([10]; 1000 g ai/ha, 0 to 100 scale): 70 | Goosegrass plant response rating ([11]; 1000 g ai/ha, 0 to 100 scale): 90 | Amaranth, Palmer plant response rating ([12]; 1000 g ai/ha, 0 to 100 scale): 90 | Galium plant response rating ([13]; 1000 g ai/ha, 0 to 100 scale): 70 | Plant response rating, Sedge, Umbrella (0 to 100 scale, 0 is no effect and 100 is complete control) [25]: 95 | Plant response rating, Ducksalad (0 to 100 scale, 0 is no effect and 100 is complete control) [26]: 95 | Plant response rating, Rice (0 to 100 scale, 0 is no effect and 100 is complete control) (rice (Oryza sativa)): 35 | Plant response rating, Barnyardgrass (0 to 100 scale, 0 is no effect and 100 is complete control) [27]: 45 | Kochia plant response rating (0 to 100 scale) (kochia (Bassia scoparia) [14]; 1000 g ai/ha): 90 | Ragweed plant response rating (0 to 100 scale) ([15]; 1000 g ai/ha): 90 | Blackgrass plant response rating (0 to 100 scale) ([16]; 1000 g ai/ha): 100 | Ryegrass, Italian plant response rating (0 to 100 scale) ([18]; 1000 g ai/ha): 100 | Foxtail, Giant plant response rating (0 to 100 scale) ([21]; 1000 g ai/ha): 100 | Goosegrass plant response rating (0 to 100 scale) ([23]; 1000 g ai/ha): 100 | Amaranth, Palmer / Pigweed, Palmer plant response rating (0 to 100 scale) ([24]; 1000 g ai/ha): 100
